In US4529733A, “Antihypertensive 3-furoyl-1,4-dihydropyridines” (Merrell Dow Pharmaceuticals Inc., priority 1983, dated 1985):

Columns and labels:
pithed rats = experiment: Anti-hypertensive activity in pithed rats (blood pressure elevated by angiotensin II infusion); type: in vivo, rat; conditions: for bradycardia / diastolic blood pressure, elevated by an infusion of angiotensin II: i.v., result in words
[1] = molecular target: T1, K^+ -depolarized taenia preparations from the guinea pig caecum (Cavia porcellus, UniProt O35505); experiment: Calcium antagonism in K+-depolarized taenia preparations (displacement of Ca++ concentration-response curves); type: cell-based; conditions: for Kb: calculated, against Ca++, read-out: pA2 (converted)
T1 construct: taenia preparations from the guinea pig caecum; from tissue; host or cells: guinea pig caecum, taenia (smooth muscle)
T1 sequence (O35505 whole entry): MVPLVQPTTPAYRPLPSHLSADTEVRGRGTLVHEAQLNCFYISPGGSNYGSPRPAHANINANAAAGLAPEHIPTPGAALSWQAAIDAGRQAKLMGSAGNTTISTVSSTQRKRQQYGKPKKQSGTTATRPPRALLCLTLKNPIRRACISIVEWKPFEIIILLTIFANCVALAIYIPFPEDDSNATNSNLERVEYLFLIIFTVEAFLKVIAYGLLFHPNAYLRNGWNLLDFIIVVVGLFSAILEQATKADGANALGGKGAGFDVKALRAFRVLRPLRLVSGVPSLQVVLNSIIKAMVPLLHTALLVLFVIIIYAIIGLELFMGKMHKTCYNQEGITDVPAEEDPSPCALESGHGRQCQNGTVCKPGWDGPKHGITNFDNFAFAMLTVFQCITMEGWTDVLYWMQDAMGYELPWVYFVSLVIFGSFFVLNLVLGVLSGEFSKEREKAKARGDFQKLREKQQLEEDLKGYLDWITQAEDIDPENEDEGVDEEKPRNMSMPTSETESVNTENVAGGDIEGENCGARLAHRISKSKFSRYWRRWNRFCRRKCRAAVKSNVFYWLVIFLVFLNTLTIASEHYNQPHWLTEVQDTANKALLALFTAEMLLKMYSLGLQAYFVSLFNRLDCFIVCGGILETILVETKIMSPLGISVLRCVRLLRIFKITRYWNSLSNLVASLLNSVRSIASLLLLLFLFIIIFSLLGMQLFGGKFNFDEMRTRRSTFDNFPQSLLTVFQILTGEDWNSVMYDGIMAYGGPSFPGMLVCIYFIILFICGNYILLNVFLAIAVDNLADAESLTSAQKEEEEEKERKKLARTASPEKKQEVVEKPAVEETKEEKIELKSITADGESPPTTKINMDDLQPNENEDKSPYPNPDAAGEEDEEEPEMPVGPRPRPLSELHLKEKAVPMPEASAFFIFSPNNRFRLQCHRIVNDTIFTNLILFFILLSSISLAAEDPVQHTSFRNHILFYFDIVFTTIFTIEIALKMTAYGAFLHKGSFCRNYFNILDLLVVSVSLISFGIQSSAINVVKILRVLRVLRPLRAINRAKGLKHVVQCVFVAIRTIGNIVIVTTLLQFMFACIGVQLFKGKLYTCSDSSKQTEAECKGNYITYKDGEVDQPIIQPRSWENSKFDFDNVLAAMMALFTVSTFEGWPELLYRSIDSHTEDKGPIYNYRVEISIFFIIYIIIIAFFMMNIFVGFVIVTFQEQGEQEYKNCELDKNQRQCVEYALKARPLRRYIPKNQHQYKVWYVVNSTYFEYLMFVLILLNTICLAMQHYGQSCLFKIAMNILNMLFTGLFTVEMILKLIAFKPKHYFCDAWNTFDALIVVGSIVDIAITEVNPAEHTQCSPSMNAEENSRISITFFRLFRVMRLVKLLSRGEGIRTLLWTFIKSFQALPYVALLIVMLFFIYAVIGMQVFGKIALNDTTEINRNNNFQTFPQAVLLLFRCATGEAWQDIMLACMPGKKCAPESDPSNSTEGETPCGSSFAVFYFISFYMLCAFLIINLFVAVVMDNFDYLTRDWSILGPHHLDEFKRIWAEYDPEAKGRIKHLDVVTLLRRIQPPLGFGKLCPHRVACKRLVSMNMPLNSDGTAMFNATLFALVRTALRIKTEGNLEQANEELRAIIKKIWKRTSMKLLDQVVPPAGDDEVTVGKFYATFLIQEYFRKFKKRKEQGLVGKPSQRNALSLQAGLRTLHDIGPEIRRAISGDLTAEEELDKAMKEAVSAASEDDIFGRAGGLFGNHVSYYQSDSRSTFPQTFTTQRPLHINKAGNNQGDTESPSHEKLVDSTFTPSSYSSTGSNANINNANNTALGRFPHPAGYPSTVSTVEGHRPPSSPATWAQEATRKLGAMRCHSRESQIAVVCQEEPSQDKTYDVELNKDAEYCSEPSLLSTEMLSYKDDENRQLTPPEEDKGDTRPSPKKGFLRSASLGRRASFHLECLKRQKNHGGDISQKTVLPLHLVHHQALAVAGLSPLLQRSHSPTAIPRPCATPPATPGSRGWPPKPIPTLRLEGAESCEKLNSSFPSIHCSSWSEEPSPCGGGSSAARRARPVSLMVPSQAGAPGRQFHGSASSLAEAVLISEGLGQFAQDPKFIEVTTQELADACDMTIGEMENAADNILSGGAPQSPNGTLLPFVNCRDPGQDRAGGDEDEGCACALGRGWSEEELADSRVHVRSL
Text: Pharmacol., 38, 234 (1982). […] Pharmacol., 318, 234 (1982)].

[2] = test system: conscious spontaneously hypertensive rats (stroke prone strain); experiment: Anti-hypertensive effect in conscious spontaneously hypertensive rats (stroke prone strain); type: in vivo, rat
Method: In this test, the test compound is injected in an indwelling cannula in the femoral vein and blood pressure is measured by an indwelling catheter in the femoral artery. Heart rate is also measured.

[3] = test system: K^+ -depolarized taenia preparations from guinea pig caecum; experiment: Inhibition of 45Ca++ uptake in K+-depolarized taenia preparations; type: cell-based; conditions: 0.1 and 1 μM; 20 minutes incubation
Method: In this procedure, strips of taenia are incubated in Ca^++ -free buffer (composition, mM: NaCl, 97; KCl, 40; glucose, 5.5, HEPES buffer, 10; pH 7.0) at 35° C. and gassed with oxygen. The preparations thus prepared are then incubated with the test compound for 20 minutes after which ^45 Ca^++ /Ca^++ is added (1 mM for 10 minutes). Extracellular Ca^++ is displaced with lanthanum (50 mM) at 0°-4° C.

[4] = test system: pentobarbitone-anesthetized rats; experiment: Anti-hypertensive effect in pentobarbitone-anesthetized rats; type: in vivo, rat; conditions: for Change in diastolic blood pressure / Change in heart rate: pentobarbitone-anesthetized rats
Method: In this test, rats, anesthetized with a 45 to 60 mg/kg dose (i.p.) of sodium pentabarbitone, receive the test compound by injection by means of an indwelling cannula in the femoral vein. Diastolic blood pressure is measured by an indwelling catheter in the femoral artery. Heart rate is also measured.

Q: `COC(=O)C1=C(C)NC(C)=C(C(=O)c2ccco2)C1c1ccccc1[N+](=O)[O-]` (stereo not drawn) [Compound A, 3-(2-furoyl)-5-methoxycarbonyl-2,6-dimethyl-4-(2-nitrophenyl)-1,4-dihydropyridine] was tested. Which “Change in diastolic blood pressure” value (pithed rats; 3 nmol/kg i.v.) did it give?
A: 82.2 ± 5.3 % control

Q: What about the “Change in heart rate” value (pithed rats; 3 nmol/kg i.v.) of the same compound?
A: 98.1 ± 0.9 % control

Q: And the “Change in diastolic blood pressure” value (pithed rats; 10 nmol/kg i.v.)?
A: 72.3 ± 4.9 % control

Q: What about the “Change in heart rate” value (pithed rats; 10 nmol/kg i.v.) of the same compound?
A: 93.7 ± 1.7 % control

Q: And the “Change in diastolic blood pressure” value (pithed rats; 30 nmol/kg i.v.)?
A: 62.4 ± 3.5 % control

Q: What about the “Change in heart rate” value (pithed rats; 30 nmol/kg i.v.) of the same compound?
A: 90.9 ± 2.5 % control

Q: What about the “Change in diastolic blood pressure” value (pithed rats; 100 nmol/kg i.v.) of the same compound?
A: 52.0 ± 3.8 % control

Q: What about the “Change in heart rate” value (pithed rats; 100 nmol/kg i.v.) of the same compound?
A: 81.1 ± 3.3 % control

Q: What about the “Change in diastolic blood pressure” value (pithed rats; 300 nmol/kg i.v.) of the same compound?
A: 45.0 ± 1.6 % control

Q: What about the “Change in heart rate” value (pithed rats; 300 nmol/kg i.v.) of the same compound?
A: 74.2 ± 3.4 % control

Q: What about the “Change in diastolic blood pressure” value (pithed rats; 1000 nmol/kg i.v.) of the same compound?
A: 36.4 ± 1.8 % control

Q: And the “Change in heart rate” value (pithed rats; 1000 nmol/kg i.v.)?
A: 67.9 ± 3.4 % control

Q: What about the “Change in diastolic blood pressure” value (pithed rats; 3000 nmol/kg i.v.) of the same compound?
A: 32.9 ± 1.8 % control

Q: And the “Change in heart rate” value (pithed rats; 3000 nmol/kg i.v.)?
A: 64.3 ± 3.4 % control

Q: What about the bradycardia (pithed rats) of the same compound?
A: dose-dependent bradycardia

Q: What about the “diastolic blood pressure, elevated by an infusion of angiotensin II” value (pithed rats) of the same compound?
A: significantly reduced

Q: What about the “displacement of concentration-response curves to Ca++” value [1] of the same compound?
A: caused a concentration-dependent displacement to the right

Q: What about the Kb [1] of the same compound?
A: 1.78 nM

Q: What about the “Fall in mean blood pressure” value ([2]; 100 nmol/kg i.v.) of the same compound?
A: 4.5 ± 1.5 mm Hg

Q: What about the “Increase in heart rate” value ([2]; 100 nmol/kg i.v.) of the same compound?
A: 20.0 ± 3.2 beats/min

Q: What about the “Fall in mean blood pressure” value ([2]; 300 nmol/kg i.v.) of the same compound?
A: 20.5 ± 1.5 mm Hg

Q: What about the “Increase in heart rate” value ([2]; 300 nmol/kg i.v.) of the same compound?
A: 70.0 ± 4.2 beats/min

Q: And the “Fall in mean blood pressure” value ([2]; 1000 nmol/kg i.v.)?
A: 42.5 ± 1.8 mm Hg

Q: And the “Increase in heart rate” value ([2]; 1000 nmol/kg i.v.)?
A: 118.0 ± 16.3 beats/min

Q: And the “Fall in mean blood pressure” value ([2]; 3000 nmol/kg i.v.)?
A: 56.6 ± 1.4 mm Hg

Q: What about the “Increase in heart rate” value ([2]; 3000 nmol/kg i.v.) of the same compound?
A: 136.3 ± 11.1 beats/min

Q: And the blood pressure ([2]; i.v., result in words)?
A: significantly reduced blood pressure in a dose-dependent manner

Q: What about the reflex tachycardia ([2]; i.v., result in words) of the same compound?
A: produced reflex tachycardia

Q: And the “uptake of 45Ca++ into the tissue” value [3]?
A: reduced uptake

Q: What about the “blood pressure in anesthetized rats” value ([4]; anesthetized rats, i.v., result in words) of the same compound?
A: reduced blood pressure in anesthetized rats in a dose-dependent manner

Q: And the “Change in diastolic blood pressure” value ([4]; 10 nmol/kg i.v.)?
A: 86.0 ± 3.3 % control

Q: What about the “Change in heart rate” value ([4]; 10 nmol/kg i.v.) of the same compound?
A: 103.5 ± 0.9 % control

Q: What about the “Change in diastolic blood pressure” value ([4]; 30 nmol/kg i.v.) of the same compound?
A: 80.2 ± 3.2 % control

Q: What about the “Change in heart rate” value ([4]; 30 nmol/kg i.v.) of the same compound?
A: 106.2 ± 2.0 % control

Q: And the “Change in diastolic blood pressure” value ([4]; 100 nmol/kg i.v.)?
A: 55.0 ± 2.8 % control

Q: And the “Change in heart rate” value ([4]; 100 nmol/kg i.v.)?
A: 107.1 ± 3.6 % control

Q: And the “Change in diastolic blood pressure” value ([4]; 300 nmol/kg i.v.)?
A: 54.6 ± 1.9 % control

Q: And the “Change in heart rate” value ([4]; 300 nmol/kg i.v.)?
A: 106.7 ± 3.1 % control

Q: And the “Change in diastolic blood pressure” value ([4]; 1000 nmol/kg i.v.)?
A: 46.7 ± 1.6 % control

Q: And the “Change in heart rate” value ([4]; 1000 nmol/kg i.v.)?
A: 104.0 ± 1.8 % control

Q: And the “Change in diastolic blood pressure” value ([4]; 3000 nmol/kg i.v.)?
A: 46.6 ± 1.6 % control

Q: What about the “Change in heart rate” value ([4]; 3000 nmol/kg i.v.) of the same compound?
A: 102.2 ± 2.2 % control

Q: What about the “Change in diastolic blood pressure” value ([4]; 10000 nmol/kg i.v.) of the same compound?
A: 32.4 ± 2.0 % control

Q: What about the “Change in heart rate” value ([4]; 10000 nmol/kg i.v.) of the same compound?
A: 99.9 ± 3.4 % control

Q: How did the “Change in diastolic blood pressure” value (pithed rats; 10 nmol/kg i.v.) turn out when `CCOC(=O)C1=C(C)NC(C)=C(C(=O)c2ccco2)C1c1ccccc1[N+](=O)[O-]` (stereo not drawn) [Compound B, 3-(2-furoyl)-5-ethoxycarbonyl-2,6-dimethyl-4-(2-nitrophenyl)-1,4-dihydropyridine] was run?
A: 80.6 ± 2.8 % control

Q: What about the “Change in heart rate” value (pithed rats; 10 nmol/kg i.v.) of the same compound?
A: 94.1 ± 0.5 % control

Q: What about the “Change in diastolic blood pressure” value (pithed rats; 30 nmol/kg i.v.) of the same compound?
A: 67.9 ± 3.0 % control

Q: And the “Change in heart rate” value (pithed rats; 30 nmol/kg i.v.)?
A: 90.4 ± 1.3 % control

Q: What about the “Change in diastolic blood pressure” value (pithed rats; 100 nmol/kg i.v.) of the same compound?
A: 47.7 ± 2.4 % control

Q: And the “Change in heart rate” value (pithed rats; 100 nmol/kg i.v.)?
A: 85.7 ± 1.5 % control

Q: And the “Change in diastolic blood pressure” value (pithed rats; 300 nmol/kg i.v.)?
A: 45.6 ± 3.9 % control

Q: And the “Change in heart rate” value (pithed rats; 300 nmol/kg i.v.)?
A: 84.1 ± 3.4 % control

Q: And the “Change in diastolic blood pressure” value (pithed rats; 1000 nmol/kg i.v.)?
A: 39.1 ± 2.1 % control

Q: And the “Change in heart rate” value (pithed rats; 1000 nmol/kg i.v.)?
A: 76.6 ± 3.4 % control

Q: What about the “Change in diastolic blood pressure” value (pithed rats; 3000 nmol/kg i.v.) of the same compound?
A: 37.1 ± 0.8 % control

Q: And the “Change in heart rate” value (pithed rats; 3000 nmol/kg i.v.)?
A: 72.2 ± 3.4 % control

Q: What about the bradycardia (pithed rats) of the same compound?
A: dose-dependent bradycardia

Q: What about the “diastolic blood pressure, elevated by an infusion of angiotensin II” value (pithed rats) of the same compound?
A: significantly reduced

Q: And the “displacement of concentration-response curves to Ca++” value [1]?
A: caused a concentration-dependent displacement to the right

Q: What about the Kb [1] of the same compound?
A: 4.57 nM
